pIC50: −log10 of the molar value. One block for each compound: values may come before it. Active and inactive are the calls of the source. The rule behind the calls is not given here.
Key:
[1] = test system: HepG2; assay: Antiproliferative activity against human HepG2 cells assessed as reduction in cell viability incubated for 72 hrs by CCK-8 assay; type: functional, cell-based; details: HepG2, 72 h
[2] = test system: BGC-823; assay: Antiproliferative activity against human BGC-823 cells assessed as reduction in cell viability incubated for 72 hrs by CCK-8 assay; type: functional, cell-based; details: BGC-823, 72 h
[3] = test system: HCT-116; assay: Antiproliferative activity against human HCT-116 cells assessed as reduction in cell viability incubated for 72 hrs by CCK-8 assay; type: functional, cell-based; details: HCT-116, 72 h
[4] = test system: MCF7; assay: Antiproliferative activity against human MCF7 cells assessed as reduction in cell viability incubated for 72 hrs by CCK-8 assay; type: functional, cell-based; details: MCF7, 72 h
[5] = test system: A549; assay: Antiproliferative activity against human A549 cells assessed as reduction in cell viability incubated for 72 hrs by CCK-8 assay; type: functional, cell-based; details: A549, 72 h
[6] = Cytotoxicity against human L02 cells assessed as reduction in cell viability incubated for 72 hrs by CCK-8 assay; type: toxicity, cell-based
[7] = test system: HepG2; assay: Induction of NO release in human HepG2 cells assessed as increase in mean fluorescence intensity at 1.5 uM incubated for 72 hrs by DAF-FM DA dye based fluorescence microscopic analysis; type: functional, cell-based
[8] = test system: HepG2; assay: Induction of NO release in human HepG2 cells assessed as increase in mean fluorescence intensity at 1 uM incubated for 72 hrs by DAF-FM DA dye based fluorescence microscopic analysis; type: functional, cell-based
[9] = test system: HepG2; assay: Induction of NO release in human HepG2 cells assessed as increase in mean fluorescence intensity at 1 to 9 uM incubated for 72 hrs by DAF-FM DA dye based fluorescence microscopic analysis; type: functional, cell-based; details: dose 1-9 µM
[10] = Stability of the compound in PBS at pH 7.4 assessed as parent compound remaining at 40 uM measured up to 36 hrs by HPLC analysis; type: physicochemical; details: buffer, pH 7.4, 36 h
[11] = test system: HepG2; assay: Induction of apoptosis in human HepG2 cells assessed as viable cells at 7.5 uM incubated for 24 hrs by PI and annexin V-FITC staining based flow cytometry (reference value: 93.97%); type: functional; details: read-out: Activity
[12] = test system: HepG2; assay: Induction of apoptosis in human HepG2 cells assessed as viable cells at 1.5 uM incubated for 24 hrs by PI and annexin V-FITC staining based flow cytometry (reference value: 93.97%); type: functional; details: read-out: Activity
[13] = test system: HepG2; assay: Induction of apoptosis in human HepG2 cells assessed as early apoptotic cells at 1.5 uM incubated for 24 hrs by PI and annexin V-FITC staining based flow cytometry (reference value: 2.68%); type: functional
[14] = test system: HepG2; assay: Induction of apoptosis in human HepG2 cells assessed as late apoptotic cells at 1.5 uM incubated for 24 hrs by PI and annexin V-FITC staining based flow cytometry (reference value: 0.36%); type: functional
[15] = test system: HepG2; assay: Induction of apoptosis in human HepG2 cells assessed as necrotic cells at 1.5 uM incubated for 24 hrs by PI and annexin V-FITC staining based flow cytometry (reference value: 0.36%); type: functional
[16] = test system: HepG2; assay: Induction of apoptosis in human HepG2 cells assessed as early apoptotic cells at 7.5 uM incubated for 24 hrs by PI and annexin V-FITC staining based flow cytometry (reference value: 2.68%); type: functional
[17] = test system: HepG2; assay: Induction of apoptosis in human HepG2 cells assessed as late apoptotic cells at 7.5 uM incubated for 24 hrs by PI and annexin V-FITC staining based flow cytometry (reference value: 0.36%); type: functional
[18] = test system: HepG2; assay: Induction of apoptosis in human HepG2 cells assessed as necrotic cells at 7.5 uM incubated for 24 hrs by PI and annexin V-FITC staining based flow cytometry (reference value: 0.36%); type: functional
[19] = test system: HepG2; assay: Induction of apoptosis in human HepG2 cells assessed as viable cells at 15 uM incubated for 24 hrs by PI and annexin V-FITC staining based flow cytometry (reference value: 93.97%); type: functional; details: read-out: Activity
[20] = test system: HepG2; assay: Induction of apoptosis in human HepG2 cells assessed as early apoptotic cells at 15 uM incubated for 24 hrs by PI and annexin V-FITC staining based flow cytometry (reference value: 2.68%); type: functional
[21] = test system: HepG2; assay: Induction of apoptosis in human HepG2 cells assessed as late apoptotic cells at 15 uM incubated for 24 hrs by PI and annexin V-FITC staining based flow cytometry (reference value: 0.36%); type: functional
[22] = test system: HepG2; assay: Induction of apoptosis in human HepG2 cells assessed as necrotic cells at 15 uM incubated for 24 hrs by PI and annexin V-FITC staining based flow cytometry (reference value: 0.36%); type: functional
[23] = test system: HepG2; assay: Induction of cell cycle arrest in human HepG2 cells assessed as accumulation of cells at G1 phase at 1.5 uM incubated for 24 hrs by PI staining based flow cytometry analysis (reference value: 42.39%); type: functional
[24] = test system: HepG2; assay: Induction of cell cycle arrest in human HepG2 cells assessed as accumulation of cells at G2/M phase at 1.5 uM incubated for 24 hrs by PI staining based flow cytometry analysis (reference value: 14.58%); type: functional
[25] = test system: HepG2; assay: Induction of cell cycle arrest in human HepG2 cells assessed as accumulation of cells at S phase at 1.5 uM incubated for 24 hrs by PI staining based flow cytometry analysis (reference value: 42.03%); type: functional
[26] = test system: HepG2; assay: Induction of cell cycle arrest in human HepG2 cells assessed as accumulation of cells at G1 phase at 7.5 uM incubated for 24 hrs by PI staining based flow cytometry analysis (reference value: 42.39%); type: functional
[27] = test system: HepG2; assay: Induction of cell cycle arrest in human HepG2 cells assessed as accumulation of cells at G2/M phase at 7.5 uM incubated for 24 hrs by PI staining based flow cytometry analysis (reference value: 14.58%); type: functional
[28] = test system: HepG2; assay: Induction of cell cycle arrest in human HepG2 cells assessed as accumulation of cells at S phase at 7.5 uM incubated for 24 hrs by PI staining based flow cytometry analysis (reference value: 42.03%); type: functional
[29] = test system: HepG2; assay: Induction of cell cycle arrest in human HepG2 cells assessed as accumulation of cells at G1 phase at 15 uM incubated for 24 hrs by PI staining based flow cytometry analysis (reference value: 42.39%); type: functional
[30] = test system: HepG2; assay: Induction of cell cycle arrest in human HepG2 cells assessed as accumulation of cells at G2/M phase at 15 uM incubated for 24 hrs by PI staining based flow cytometry analysis (reference value: 14.58%); type: functional
[31] = test system: HepG2; assay: Induction of cell cycle arrest in human HepG2 cells assessed as accumulation of cells at S phase at 15 uM incubated for 24 hrs by PI staining based flow cytometry analysis (reference value: 42.03%); type: functional
[32] = Stability in Sprague-Dawley rat plasma assessed as parent compound remaining at 40 uM measured up to 36 hrs by HPLC analysis; type: ADME, cell-free
[33] = Acute toxicity in ip dosed ICR mouse assessed as maximum tolerated dose measured over 14 days; type: organism-based; details: in vivo, time 14 day
[34] = Acute toxicity in ICR mouse assessed as death time at 50 mg/kg, ip measured over 14 days; type: organism-based; details: in vivo, 336 h, time 14 day
[35] = Acute toxicity in ICR mouse assessed as death time at 10 mg/kg, ip measured over 14 days; type: organism-based; details: in vivo, 336 h, time 14 day
[36] = Apparent permeability across apical to basolateral side in human Caco-2 cells at 2 uM measured after 2 hrs by […] dye based microplate reader analysis; type: ADME, cell-based
[37] = Apparent permeability across basolateral to apical side in human Caco-2 cells at 2 uM measured after 2 hrs by […] dye based microplate reader analysis; type: ADME, cell-based
[38] = Acute toxicity in ICR mouse assessed as abnormality in eating at less than 100 mg/kg, ip measured over 14 days; type: organism-based; details: in vivo, 336 h, time 14 day
[39] = Acute toxicity in ICR mouse assessed as abnormality in drinking at less than 100 mg/kg, ip measured over 14 days; type: organism-based; details: in vivo, 336 h, time 14 day
[40] = Acute toxicity in ICR mouse assessed as change in body weight at less than 100 mg/kg, ip measured over 14 days; type: organism-based; details: in vivo, 336 h, time 14 day
[41] = Acute toxicity in ICR mouse assessed as change in activity at less than 100 mg/kg, ip measured over 14 days; type: organism-based; details: in vivo, 336 h, time 14 day

SMILES: Br.Cc1c2c(cc[n+]1Cc1ccccc1)c1ccc(OCC(=O)OCCCCOc3no[n+]([O-])c3S(=O)(=O)c3ccccc3)cc1n2CCCc1ccccc1
pIC50 [1]: 5.75
pIC50 [2]: 5.06
pIC50 [3]: 5.11
pIC50 [4]: 5.55
pIC50 [5]: 5.46
IC50 at 72 h [6]: 10 µM
Activity [7]: Active
Activity [8]: Active
Activity [9]: Active
Stability [10]: Stable
viability at 7.5 µM [11]: 77.2%
viability at 1.5 µM [12]: 81.2%
Activity [13]: 10.11%
Activity [14]: 4.28%
Activity [15]: 4.44%
Activity [16]: 12.78%
Activity [17]: 5.56%
Activity [18]: 4.45%
viability at 15 µM [19]: 58.3%
Activity [20]: 20.86%
Activity [21]: 14.73%
Activity [22]: 6.08%
Activity [23]: 40.68%
Activity [24]: 18.57%
Activity [25]: 40.75%
Activity [26]: 33.77%
Activity [27]: 20.03%
Activity [28]: 46.2%
Activity [29]: 33.22%
Activity [30]: 30.22%
Activity [31]: 36.56%
Stability [32]: Stable
MTD at 336 h [33]: 100 mg/kg
Activity [34]: Non-Toxic
Activity [35]: Non-Toxic
Papp A→B at 2 h, 2 µM [36]: < 0.05 ×10⁻⁶ cm/s
Papp B→A at 2 h, 2 µM [37]: < 0.05 ×10⁻⁶ cm/s
Activity [38]: Non-Toxic
Activity [39]: Non-Toxic
Activity [40]: Non-Toxic
Activity [41]: Non-Toxic

SMILES: Cc1c2c(cc[n+]1Cc1ccccc1)c1ccc(OCC(=O)O)cc1n2CCCc1ccccc1
pIC50 [1]: 3.95
pIC50 [2]: 4.43
pIC50 [3]: 4.40
pIC50 [4]: 4.58
pIC50 [5]: 4.28
IC50 at 72 h [6]: 90.3 µM

SMILES: COc1ccc2c(c1)[nH]c1c(C)nccc12 [HARMINE]
pIC50 [1]: 4.77
pIC50 [2]: 4.81
pIC50 [3]: 5.16
pIC50 [4]: 4.82
pIC50 [5]: 5.28
IC50 at 72 h [6]: 25.1 µM
Activity [35]: Non-Toxic

More lines, main results first:

pIC50 [1]: 5.30
pIC50 [2]: 5.50
pIC50 [3]: 5.21
pIC50 [4]: 5.31
pIC50 [5]: 5.46
SMILES: O=S(=O)(c1ccccc1)c1c(OCCCCO)no[n+]1[O-]
IC50 at 72 h [6]: 17.9 µM

pIC50 [1]: 6.37
pIC50 [2]: 6.18
pIC50 [3]: 6.06
pIC50 [4]: 6.42
pIC50 [5]: 5.98
SMILES: COc1cccc2c1C(=O)c1c(O)c3c(c(O)c1C2=O)C[C@@](O)(C(=O)CO)C[C@@H]3O[C@H]1C[C@H](N)[C@H](O)[C@H](C)O1 [DOXORUBICIN]

pIC50 [1]: 5.18
pIC50 [2]: 4.93
pIC50 [3]: 5.04
pIC50 [4]: 5.13
pIC50 [5]: 5.10
SMILES: O=S(=O)(c1ccccc1)c1c(OCCCO)no[n+]1[O-]
IC50 at 72 h [6]: 21.7 µM
